Experimental data reported in patent US5807986A, “Methods of making and screening betide libraries” (The Salk Institute For Biological Studies, priority 1995, dated 1998).
Several values for one entry are separate records, joined by “and”; a condition that tells them apart may be missing. Equal entries are not always repeated. Where a SMILES comes first, the peptide text is derived from it. [ ]: non-standard residue; d: D form. dPhe(4-NH2) = Nc1ccc(C[C@@H](N)C(=O)O)cc1; dPhe(4-Cl) = N[C@H](Cc1ccc(Cl)cc1)C(=O)O; Phe(4-NH2) = Nc1ccc(C[C@H](N)C(=O)O)cc1; d2Nal = N[C@H](Cc1ccc2ccccc2c1)C(=O)O; Lys(iPr) = CC(C)NCCCC[C@H](N)C(=O)O; d3Pal = N[C@H](Cc1cccnc1)C(=O)O

How the values were obtained:
[1] = examination of rats for tolerance and gelling at the point of injection; type: in vivo; details: rats of the anti-ovulation test, injected in bacteriostatic water
Method: (§1) The betide is assayed in vivo to determine its effectiveness to prevent ovulation in female rats. In this test, a specified number of mature female Sprague-Dawley rats, e.g. five to ten, each having a body weight from 225 to 250 grams, are injected with a specified microgram dosage of the betide in bacteriostatic water at about noon on the day of proestrus. Proestrus is the […] of ovulation. A separate female rat group is used as a control to which the peptide is not administered. Each of the control female rats ovulates on the evening of proestrus; the number of the rats treated which ovulate is recorded. […] At a dosage of 1.0 microgram for isomer (1), all ovulate while for 1 μg of isomer (2), only 6 out of 14 rats ovulate and for 0.5 μg, 3 out of 4 rats ovulate. Isomer (2) is hereinafter referred to as Betide No. 1.

[2] = hydrophilicity by retention on RP-HPLC; type: physicochemical
mSSTR1 = molecular target: T1, mSSTR1 (Mus musculus, UniProt P30873); experiment: inhibition of radioligand binding to cloned SRIF receptor mSSTR1; details: cloned mouse receptor expressed on COS and CHO cells
T1 construct: expressed in transfected cells; host or cells: COS and CHO cells
Method: (§2) In vitro Bioassay: The effects of the various somatostatin analogs are tested in vitro for their ability to bind to isolated cloned receptors expressed on COS and CHO cells.
(§3) Five such receptor subtypes termed SSTR1 through SSTR5, have been cloned and are reported and described in Raynor et al., Molecular Pharmacology, 43, 838-844 (1993) and in Raynor et al., Molecular Pharmacology, 44, 385-392 (1993).

mSSTR2 = molecular target: T2, mSSTR2 (Mus musculus, UniProt P30875); experiment: inhibition of radioligand binding to cloned SRIF receptor mSSTR2; details: cloned mouse receptor expressed on COS and CHO cells
T2 construct: expressed in transfected cells; host or cells: COS and CHO cells
Method: as §2, §3

mSSTR3 = molecular target: T3, mSSTR3 (Mus musculus, UniProt P30935); experiment: inhibition of radioligand binding to cloned SRIF receptor mSSTR3; details: cloned mouse receptor expressed on COS and CHO cells
T3 construct: expressed in transfected cells; host or cells: COS and CHO cells
Method: as §2, §3

ovulation in female rats = experiment: standard in vivo rat anti-ovulation test; design: species or system Sprague-Dawley rats; details: injected at about noon on the day of proestrus
Method: as §1

T1 sequence (P30873 whole entry): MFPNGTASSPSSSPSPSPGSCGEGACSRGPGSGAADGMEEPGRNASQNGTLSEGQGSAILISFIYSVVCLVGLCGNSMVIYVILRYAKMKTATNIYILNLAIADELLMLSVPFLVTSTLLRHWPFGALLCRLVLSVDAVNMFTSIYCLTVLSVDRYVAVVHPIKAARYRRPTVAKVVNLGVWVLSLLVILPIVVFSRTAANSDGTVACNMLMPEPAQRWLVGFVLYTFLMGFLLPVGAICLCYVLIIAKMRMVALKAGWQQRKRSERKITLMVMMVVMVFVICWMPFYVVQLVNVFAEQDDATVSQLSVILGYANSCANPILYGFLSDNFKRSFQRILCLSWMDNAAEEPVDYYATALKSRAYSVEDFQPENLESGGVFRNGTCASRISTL
T2 sequence (P30875 whole entry): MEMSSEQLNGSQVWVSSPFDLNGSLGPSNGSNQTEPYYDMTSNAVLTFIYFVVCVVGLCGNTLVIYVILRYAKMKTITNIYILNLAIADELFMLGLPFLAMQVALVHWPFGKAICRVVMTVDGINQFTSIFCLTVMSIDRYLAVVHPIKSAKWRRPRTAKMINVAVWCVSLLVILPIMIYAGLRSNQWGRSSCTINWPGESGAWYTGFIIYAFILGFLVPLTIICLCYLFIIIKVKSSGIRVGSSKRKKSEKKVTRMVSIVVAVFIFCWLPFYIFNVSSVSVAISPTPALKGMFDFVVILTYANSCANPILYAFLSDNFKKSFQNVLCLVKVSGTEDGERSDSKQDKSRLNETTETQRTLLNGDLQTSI
T3 sequence (P30935 whole entry): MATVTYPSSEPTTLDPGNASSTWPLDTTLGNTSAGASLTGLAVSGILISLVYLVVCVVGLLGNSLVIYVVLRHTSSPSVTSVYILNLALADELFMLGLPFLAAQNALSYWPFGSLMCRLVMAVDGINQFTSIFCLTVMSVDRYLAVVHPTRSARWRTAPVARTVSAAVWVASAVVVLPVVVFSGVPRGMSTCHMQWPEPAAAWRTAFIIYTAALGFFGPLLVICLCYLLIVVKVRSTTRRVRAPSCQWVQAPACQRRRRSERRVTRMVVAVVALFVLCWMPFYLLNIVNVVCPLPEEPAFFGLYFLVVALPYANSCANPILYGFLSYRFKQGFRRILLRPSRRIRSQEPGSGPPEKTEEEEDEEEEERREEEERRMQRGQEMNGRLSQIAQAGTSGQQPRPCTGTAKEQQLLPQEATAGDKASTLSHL

| Compound | IC50 (mSSTR1) | IC50 (mSSTR2) [nM] | rats ovulating out of rats treated (ovulation in female rats; dosage 5 μg) | further results |
| --- | --- | --- | --- | --- |
| CC(=O)Nc1ccc(C[C@H](NC(=O)[C@H](CO)NC(=O)C(NC(=O)c2cccnc2)NC(=O)[C@@H](Cc2ccc(Cl)cc2)NC(=O)[C@@H](Cc2ccc3ccccc3c2)NC(C)=O)C(=O)N[C@H](Cc2ccc(NC(C)=O)cc2)C(=O)N[C@@H](CC(C)C)C(=O)N[C@@H](CCCCNC(C)C)C(=O)N2CCC[C@H]2C(=O)N[C@H](C)C(N)=O)cc1 (single isomer, unassigned) [Betide No. 1, [Ac-β-D-2NAL^1, (4Cl)D-Phe^2, D/L Agl(nicotinoyl)^3, Aph(Ac)^5, D-Aph(Ac)^6, ILys^8, D-Ala^10]-GnRH] |  |  |  | tolerance and gelling at the point of injection [1]: very well tolerated, with no significant gelling at the point of injection being detectable |
| CC(=O)Nc1ccc(C[C@H](NC(=O)[C@H](CO)NC(=O)[C@@H](Cc2cccnc2)NC(=O)[C@@H](Cc2ccc(Cl)cc2)NC(=O)[C@@H](Cc2ccc3ccccc3c2)NC(C)=O)C(=O)N[C@H](Cc2ccc(NC(C)=O)cc2)C(=O)N[C@@H](CC(C)C)C(=O)N[C@@H](CCCCNC(C)C)C(=O)N2CCC[C@H]2C(=O)N[C@H](C)C(N)=O)cc1 [Acyline, Ac-β-D-2NAL-(4Cl)D-Phe-D-3PAL-Ser-Aph(Ac)D-Aph(Ac)-Leu-ILys-Pro-D-Ala-NH2, reference compound] (Ac-[d2Nal][dPhe(4-Cl)][d3Pal]S[Phe(4-NH2)](Ac)[dPhe(4-NH2)](Ac)L[Lys(iPr)]P[dA]-NH2) |  |  |  | retention using RP-HPLC (hydrophilicity) ([2]; gradient 40% to 75% Buffer B over 30 minutes, Buffer A TEAP pH 7.3, Buffer B 60% CH3CN and 40% Buffer A): 24.1 min |
| Ac-β-D-2NAL-(4Cl)D-Phe-D-3PAL-Ser-(4-Acetyl-amino-benzyl)D/L-amidoGly-D-Aph(acetyl)-Leu-Lys(isopropyl)-Pro-D-Ala-NH2 [Betide No. 4] |  |  | 2 out of 8 |  |
| Ac-β-D-2NAL-(4Cl)D-Phe-D-3PAL-Ser-Aph(acetyl)-γ-(4-acetamidophenyl)D/L-amidoGly-Leu-Lys (isopropyl)-Pro-D-Ala-NH2 [Betide No. 5] |  |  | 1 out of 8 | rats ovulating out of rats treated (ovulation in female rats; dosage 2.5 μg): 2 out of 4 |
| Ac-β-D-2NAL-(4Cl)D-Phe-D-3PAL-Ser-γ-(4-hydroxyphenyl)D/L-amidoGly-D-Aph(acetyl)-Leu-Lys(isopropyl)-Pro-D-Ala-NH2 [Betide No. 4A] |  |  | 2 out of 16 |  |
| Ac-β-D-2NAL-(4Cl)D-Phe-D-(3-pyridyl)Ala-Ser-Aph(acetyl)-D-Aph(acetyl)-D/L-Agl(Acetyl)-Lys(isopropyl)-Pro-D-Ala-NH2 [Betide No. 2] |  |  | 5 out of 8 | rats ovulating out of rats treated (ovulation in female rats; dosage 10 μg): 0 out of 8; hydrophilicity compared to Acyline ([2]; RP-HPLC): more hydrophilic than Acyline |
| [Ac-βCH3 -D-2NAL^1, 4ClD-Phe^2, D-3PAL^3, Aph(atz)^5, D-Aph(atz)^6, ILys^8, D-Ala^10 ]-GnRH [E stereoisomer] |  |  |  | rats ovulating out of rats treated (ovulation in female rats; dosage 1.0 μg): partially active; rats ovulating out of rats treated (ovulation in female rats; dosage 2.5 μg): fully active |

Now from value to compound, other results behind:

| IC50 (mSSTR1) | IC50 (mSSTR2) [nM] | Compound | rats ovulating out of rats treated (ovulation in female rats; dosage 5 μg) | further results |
| --- | --- | --- | --- | --- |
| > 1000 nM | > 1000 | C[C@@H](O)[C@@H]1NC(=O)[C@H](CCCCN)NC(=O)C(NC(=O)c2ccc3ccccc3c2)NC(=O)[C@H](Cc2ccccc2)NC(=O)[C@H](Cc2ccccc2)NC(=O)[C@@H](N)CSSC[C@@H](C(=O)O)NC(=O)[C@H](Cc2ccccc2)NC1=O (stereo partly drawn) [Betide No. 7, (cyclo 1-8)H-Cys-Phe-Phe-(2-naphthylamido)Gly-Lys-Thr-Phe-Cys-OH] |  | IC50 (mSSTR3): > 1000 nM |
| > 1000 nM and 600 nM | > 1000 | C[C@@H](O)[C@@H]1NC(=O)[C@H](CCCCN)NC(=O)C(N(C)C(=O)c2ccc3ccccc3c2)NC(=O)[C@H](Cc2ccccc2)NC(=O)[C@H](Cc2ccccc2)NC(=O)[C@@H](N)CSSC[C@@H](C(=O)O)NC(=O)[C@H](Cc2ccccc2)NC1=O (stereo partly drawn) [Betide No. 7A, (cyclo 1-8)H-Cys-Phe-Phe-(β-methyl-γ-2-naphthyl)D/L(amido)Gly-Lys-Thr- Phe-Cys-OH] |  |  |
| > 1000 nM | > 1000 | C[C@@H](O)[C@@H]1NC(=O)C(NC(=O)CCN)NC(=O)[C@@H](Cc2c[nH]c3ccccc23)NC(=O)[C@H](Cc2ccccc2)NC(=O)[C@H](Cc2ccccc2)NC(=O)[C@@H](N)CSSC[C@@H](C(=O)O)NC(=O)[C@H](Cc2ccccc2)NC1=O (stereo partly drawn) [Betide No. 8, (cyclo 1-8)H-Cys-Phe-Phe-D-Trp-γ-(2-aminoethyl)amido-glycine-Thr-Phe-Cys-OH] |  | IC50 (mSSTR3): > 1000 nM |
